Molecules are shown by their SMILES.

This passage reports IC50 and chemical stability results from US6409988B1, “Radiolabeled 1-aryl pyrazoles, the synthesis thereof and the use thereof as pest GABA receptor ligands” (3-Dimensional Pharmaceuticals, Inc., priority 1999, dated 2002).

One data set has as its target T1, housefly GABA receptor (Musca domestica, UniProt Q75NA5).
T1 sequence (Q75NA5 30-576): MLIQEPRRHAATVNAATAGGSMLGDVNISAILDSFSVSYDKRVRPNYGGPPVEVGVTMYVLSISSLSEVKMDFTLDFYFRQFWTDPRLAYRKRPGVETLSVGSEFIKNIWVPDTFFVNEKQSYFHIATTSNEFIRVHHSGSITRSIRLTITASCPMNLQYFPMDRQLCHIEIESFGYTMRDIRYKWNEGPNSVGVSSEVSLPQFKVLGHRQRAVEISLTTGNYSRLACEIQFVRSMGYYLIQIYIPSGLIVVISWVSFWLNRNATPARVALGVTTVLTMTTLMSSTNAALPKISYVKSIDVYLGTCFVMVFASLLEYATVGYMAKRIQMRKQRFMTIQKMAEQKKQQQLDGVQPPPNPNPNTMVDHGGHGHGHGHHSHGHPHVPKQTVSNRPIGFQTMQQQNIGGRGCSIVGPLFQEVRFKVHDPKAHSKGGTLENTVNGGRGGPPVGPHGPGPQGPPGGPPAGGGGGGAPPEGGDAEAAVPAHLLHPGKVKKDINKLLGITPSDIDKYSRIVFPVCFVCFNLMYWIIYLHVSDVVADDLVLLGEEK
Kind of data set: Displacement of 3H-EBOB from the housefly GABA receptor. Format: binding. Here is the method: (§1) Compound 1 binds to the housefly GABA receptor with high affinity (IC50=8 nM, for displacement of 2.6 nM of ^3H-EBOB) and can be radiolabeled at high specific activity (>70 Ci/mmol). These are two highly desirable requirements for a new radioligand.

A short description of data set [1]: Chemical stability of the radioligand. Format: physicochemical. Conditions: avoids periodic purification steps. As to the method:
as §1

For orientation: IC50 means the concentration at which inhibition is half-maximal. A lower IC50 goes with higher potency. As to `[3H]C([3H])([3H])Sc1nn(-c2c(Cl)cc(C(F)(F)F)cc2Cl)c(N)c1C#N` [Compound 1, 4-cyano-1-(2,6-dichloro-4-trifluorophenyl)-3-[^3H3]methylthiopyrazol-5-ylamine], the IC50 on housefly GABA receptor is 8 nM. Also, the chemical stability entry in data set [1] is “chemically stable”.
